Measured values as given in patent US20250375511A1 (priority 2024, published 2025).

Key:
[1] = Binding of Fe^3+ to BCG: zeta potential (Zeta Sizer Ultra); assay type: physicochemical; settings: in water, 0.04 mg/mL BCG, 100 uM Fe(NO3)3, measured immediately
Protocol: Zeta potential was measured immediately using a Zeta Sizer Ultra (Malvern).

[2] = test system: T24 cells; assay type: cell-based, human
[3] = test system: CT26.WT (mouse colon adenocarcinoma) tumors; design: species or system male BALB/C mice; settings: in vivo

| Molecule | zeta potential [1] | cell kill [2] [%] | survival [3] | tumor growth [3] |
| --- | --- | --- | --- | --- |
| O=[N+]([O-])[O-].O=[N+]([O-])[O-].O=[N+]([O-])[O-].[Fe+3] [Fe^3+, Fe(NO3)3] | not detectable | 1.4 | – | – |
| Ru(4,4′-dimethyl-2,2′-bipyridine)2(2-(2′,2″:5″,2′″-terthiophene)-imidazo[4,5-f][1,10]phenanthroline) [RUVIDAR] | – | – | significantly increases survival, but the effect size is small | tumor growth suppression |
